Test results: ChEMBL document CHEMBL4613212, “Insights of synthetic analogues of anti-leprosy agents” (Bioorg Med Chem, 2019)

What was measured:
Mycobacterium leprae [1] = assay: Anti-leprotic activity against rifampicin-susceptible Mycobacterium leprae primary cultures at 4 weeks assessed as [3H]thymidine uptake per 5 times 10^7 cells at 0.3 mg/L incubated for 24 hrs (reference value: 1.05 +/- 0.16 pmol); type: functional
Mycobacterium leprae [2] = assay: Anti-leprotic activity against rifampin-susceptible Mycobacterium leprae infected in armadillo assessed as bacterial counts in footpad at 6 mg/kg administered with food daily for 8 weeks (reference value: 162%); type: functional
Mycobacterium leprae [3] = assay: Anti-leprotic activity against rifampicin-susceptible Mycobacterium leprae subcultures at 4 weeks assessed as [3H]thymidine uptake per 5 times 10^7 cells at 0.2 mg/L incubated for 24 hrs (reference value: 1.41 +/- 0.20 pmol); type: functional
[4] = Plasma concentration in rifampin-susceptible Mycobacterium leprae infected in BALB/c mouse at 6 mg/kg administered with food daily for 8 weeks by high-pressure liquid chromatography analysis; type: ADME, organism-based; conditions: po
Mycobacterium leprae [5] = assay: Anti-leprotic activity against rifampin-susceptible Mycobacterium leprae infected in BALB/c mouse assessed as ATP level per 10^6 Mycobacterium leprae in footpad at 6 mg/kg administered with food daily for 8 weeks by Shepard's kinetic method (reference value: 26.1 +/- 3.7 pg); type: functional
[6] = Plasma concentration in rifampin-susceptible Mycobacterium leprae infected in BALB/c mouse at 6 mg/kg administered with food daily for 2 weeks by high-pressure liquid chromatography analysis; type: ADME, organism-based; conditions: po
Mycobacterium leprae [7] = assay: Anti-leprotic activity against rifampin-susceptible Mycobacterium leprae infected in BALB/c mouse assessed as ATP level in footpad at 6 mg/kg administered with food daily for 1 week by Shepard's kinetic method (reference value: 102%); type: functional
Mycobacterium leprae [8] = assay: Anti-leprotic activity against rifampicin-susceptible Mycobacterium leprae subcultures at 4 weeks assessed as ATP level per 10^7 cells at 0.3 mg/L measured by bioluminescence assay (reference value: 425 +/- 64 pg); type: functional
Mycobacterium leprae [9] = assay: Anti-leprotic activity against rifampin-susceptible Mycobacterium leprae infected in BALB/c mouse assessed as ATP level per 10^6 Mycobacterium leprae in footpad at 6 mg/kg administered with food daily for 12 weeks by Shepard's kinetic method (reference value: 26.9 +/- 2.90 pg); type: functional
Mycobacterium leprae [10] = assay: Anti-leprotic activity against rifampin-susceptible Mycobacterium leprae infected in armadillo assessed as bacterial counts in footpad at 6 mg/kg administered with food daily for 1 week (reference value: 110%); type: functional
Mycobacterium leprae [11] = assay: Anti-leprotic activity against rifampin-susceptible Mycobacterium leprae infected in BALB/c mouse assessed as ATP level per 10^6 Mycobacterium leprae in footpad at 6 mg/kg administered with food daily for 16 weeks by Shepard's kinetic method (reference value: 27.9 +/- 3.60 pg); type: functional
Mycobacterium leprae [12] = assay: Anti-leprotic activity against rifampicin-susceptible Mycobacterium leprae primary cultures at 4 weeks assessed as [3H]thymidine uptake per 5 times 10^7 cells at 0.1 mg/L incubated for 24 hrs (reference value: 1.05 +/- 0.16 pmol); type: functional
Mycobacterium leprae [13] = assay: Anti-leprotic activity against rifampin-susceptible Mycobacterium leprae infected in BALB/c mouse assessed as ATP level in footpad at 6 mg/kg administered with food daily for 2 weeks by Shepard's kinetic method (reference value: 109%); type: functional
Mycobacterium leprae [14] = assay: (§1) Inhibition of PGL1 synthesis in Mycobacterium leprae infected Swiss Webster mouse macrophages assessed as decrease in [U-14C]PA incorporation at 0.2 uM preincubated for 4 days post infection followed by [U-14C]PA addition and measured after 7 days by liquid scintillation counter analysis relative to control; type: functional
Mycobacterium leprae [15] = assay: Anti-leprotic activity against rifampin-susceptible Mycobacterium leprae infected in armadillo assessed as bacterial counts in footpad at 6 mg/kg administered with food daily for 16 weeks (reference value: 226%); type: functional
Mycobacterium leprae [16] = assay: Anti-leprotic activity against rifampin-susceptible Mycobacterium leprae infected in BALB/c mouse assessed as ATP level in footpad at 6 mg/kg administered with food daily for 4 weeks by Shepard's kinetic method (reference value: 98%); type: functional
Mycobacterium leprae [17] = assay: Anti-leprotic activity against rifampicin-susceptible Mycobacterium leprae subcultures at 4 weeks assessed as [3H]thymidine uptake per 5 times 10^7 cells at 0.3 mg/L incubated for 24 hrs (reference value: 1.41 +/- 0.20 pmol); type: functional
[18] = Plasma concentration in rifampin-susceptible Mycobacterium leprae infected in BALB/c mouse at 6 mg/kg administered with food daily for 4 weeks by high-pressure liquid chromatography analysis; type: ADME, organism-based; conditions: po
Mycobacterium leprae [19] = assay: Anti-leprotic activity against rifampicin-susceptible Mycobacterium leprae subcultures at 4 weeks assessed as ATP level per 10^7 cells at 0.1 mg/L measured by bioluminescence assay (reference value: 425 +/- 64 pg); type: functional
Mycobacterium leprae [20] = assay: Anti-leprotic activity against rifampin-susceptible Mycobacterium leprae infected in armadillo assessed as bacterial counts in footpad at 6 mg/kg administered with food daily for 4 weeks (reference value: 141%); type: functional
Mycobacterium leprae [21] = assay: Anti-leprotic activity against rifampin-susceptible Mycobacterium leprae infected in armadillo assessed as bacterial counts in footpad at 6 mg/kg administered with food daily for 2 weeks (reference value: 125%); type: functional
Mycobacterium leprae [22] = assay: Anti-leprotic activity against rifampicin-susceptible Mycobacterium leprae primary cultures at 4 weeks assessed as ATP level per 10^7 cells at 0.2 mg/L measured by bioluminescence assay (reference value: 332 +/- 46 pg); type: functional
Mycobacterium leprae [23] = assay: Anti-leprotic activity against rifampicin-susceptible Mycobacterium leprae subcultures at 4 weeks assessed as [3H]thymidine uptake per 5 times 10^7 cells at 0.1 mg/L incubated for 24 hrs (reference value: 1.41 +/- 0.20 pmol); type: functional
Mycobacterium leprae [24] = assay: Anti-leprotic activity against rifampicin-susceptible Mycobacterium leprae primary cultures at 4 weeks assessed as [3H]thymidine uptake per 5 times 10^7 cells at 0.2 mg/L incubated for 24 hrs (reference value: 1.05 +/- 0.16 pmol); type: functional
Mycobacterium leprae [25] = assay: Anti-leprotic activity against rifampicin-susceptible Mycobacterium leprae subcultures at 4 weeks assessed as ATP level per 10^7 cells at 0.2 mg/L measured by bioluminescence assay (reference value: 425 +/- 64 pg); type: functional
Mycobacterium leprae [26] = assay: Anti-leprotic activity against rifampicin-susceptible Mycobacterium leprae primary cultures at 4 weeks assessed as ATP level per 10^7 cells at 0.1 mg/L measured by bioluminescence assay (reference value: 332 +/- 46 pg); type: functional
[27] = Plasma concentration in rifampin-susceptible Mycobacterium leprae infected in BALB/c mouse at 6 mg/kg administered with food daily for 1 week by high-pressure liquid chromatography analysis; type: ADME, organism-based; conditions: po
[28] = Plasma concentration in rifampin-susceptible Mycobacterium leprae infected in BALB/c mouse at 6 mg/kg administered with food daily for 12 weeks by high-pressure liquid chromatography analysis; type: ADME, organism-based; conditions: po
Mycobacterium leprae [29] = assay: Anti-leprotic activity against rifampicin-susceptible Mycobacterium leprae primary cultures at 4 weeks assessed as ATP level per 10^7 cells at 0.3 mg/L measured by bioluminescence assay (reference value: 332 +/- 46 pg); type: functional
Mycobacterium leprae [30] = assay: Anti-leprotic activity against rifampin-susceptible Mycobacterium leprae infected in armadillo assessed as bacterial counts in footpad at 6 mg/kg administered with food daily for 12 weeks (reference value: 190%); type: functional
Mycobacterium leprae [31] = assay: as §1, with “2” for “0.2”; type: functional
Mycobacterium leprae [32] = assay: Antimicrobial activity against Mycobacterium leprae assessed as fractional inhibitory concentration index at 0.0469 ug/ml in presence of 0.05 ug/ml rifabutin measured at 4 weeks; type: functional
Mycobacterium leprae [33] = assay: Antimicrobial activity against Mycobacterium leprae assessed as microbial growth at 0.0938 ug/ml in presence of 0.2 ug/ml rifampin measured at 4 weeks (reference value: 147 +/- 19.1%); type: functional
Mycobacterium leprae [34] = assay: Antimicrobial activity against Mycobacterium leprae assessed as microbial growth at 0.0469 ug/ml in presence of 0.0031 ug/ml KRM-1648 measured at 4 weeks (reference value: 147 +/- 19.1%); type: functional
Mycobacterium leprae [35] = assay: Antimicrobial activity against Mycobacterium leprae assessed as fractional inhibitory concentration index at 0.0938 ug/ml in presence of 0.2 ug/ml rifampin measured at 4 weeks; type: functional
Mycobacterium leprae [36] = assay: Antimicrobial activity against Mycobacterium leprae assessed as microbial growth at 0.0469 ug/ml in presence of 0.05 ug/ml rifabutin measured at 4 weeks (reference value: 147 +/- 19.1%); type: functional
Mycobacterium leprae [37] = assay: Antimicrobial activity against Mycobacterium leprae assessed as microbial growth at 0.0469 ug/ml in presence of 0.2 ug/ml rifampin measured at 4 weeks (reference value: 147 +/- 19.1%); type: functional
Mycobacterium leprae [38] = assay: Antimicrobial activity against Mycobacterium leprae assessed as microbial growth at 0.0469 ug/ml in presence of 0.025 ug/ml rifabutin measured at 4 weeks (reference value: 147 +/- 19.1%); type: functional
Mycobacterium leprae [39] = assay: Antimicrobial activity against Mycobacterium leprae assessed as microbial growth at 0.0938 ug/ml in presence of 0.1 ug/ml rifampin measured at 4 weeks (reference value: 147 +/- 19.1%); type: functional
Mycobacterium leprae [40] = assay: Antimicrobial activity against Mycobacterium leprae assessed as microbial growth at 0.0469 ug/ml in presence of 0.0062 ug/ml KRM-1648 measured at 4 weeks (reference value: 147 +/- 19.1%); type: functional
Mycobacterium leprae [41] = assay: Antimicrobial activity against Mycobacterium leprae assessed as fractional inhibitory concentration index at 0.0469 ug/ml in presence of 0.0062 ug/ml KRM-1648 measured at 4 weeks; type: functional

In the case of `CO[C@H]1/C=C/O[C@@]2(C)Oc3c(C)c(O)c4c(c3C2=O)C2=NC3(CCN(CC(C)C)CC3)NC2=C(NC(=O)/C(C)=C\C=C\[C@H](C)[C@H](O)[C@@H](C)[C@@H](O)[C@@H](C)[C@H](OC(C)=O)[C@@H]1C)C4=O` [RIFABUTIN], the Activity (Mycobacterium leprae [1]) is reported as 0 pmol, the Activity (Mycobacterium leprae [2]) is reported as 89% and the Activity (Mycobacterium leprae [3]) is reported as 0.49 pmol. It also gave a concentration at 1344 h [4] of 52 ng/mL, an Activity (Mycobacterium leprae [5]) of 0.049 pg and a concentration at 336 h [6] of 450 ng/mL. It also gave an Activity (Mycobacterium leprae [7]) of 72%, an Activity (Mycobacterium leprae [8]) of 0 pg and an Activity (Mycobacterium leprae [9]) of 0 pg. For the same molecule, the Activity (Mycobacterium leprae [10]) was 101%, the Activity (Mycobacterium leprae [11]) was 0 pg and the Activity (Mycobacterium leprae [12]) was 0.65 pmol. The Activity (Mycobacterium leprae [13]) was 21%, the inhibition at 0.2 µM (Mycobacterium leprae [14]) was 84% and the Activity (Mycobacterium leprae [15]) was 77%. It also gave an Activity (Mycobacterium leprae [16]) of 9%, an Activity (Mycobacterium leprae [17]) of 0 pmol and a concentration at 672 h [18] of 510 ng/mL. The Activity (Mycobacterium leprae [19]) was 127 pg, the Activity (Mycobacterium leprae [20]) was 94% and the Activity (Mycobacterium leprae [21]) was 98%. The Activity (Mycobacterium leprae [22]) was 0 pg, the Activity (Mycobacterium leprae [23]) was 0 pmol and the Activity (Mycobacterium leprae [24]) was 0 pmol. For the same molecule, the Activity (Mycobacterium leprae [25]) was 0 pg, the Activity (Mycobacterium leprae [26]) was 192 pg and the concentration at 168 h [27] was 380 ng/mL. It also gave a concentration at 2016 h [28] of 90 ng/mL, an Activity (Mycobacterium leprae [29]) of 0 pg and an Activity (Mycobacterium leprae [30]) of 83%. For the same molecule, the inhibition at 2 µM (Mycobacterium leprae [31]) was 96%.
For `N[C@@H]1CN(c2c(F)cc3c(=O)c(C(=O)O)cn([C@@H]4C[C@@H]4F)c3c2Cl)CC12CC2` [SITAFLOXACIN ANHYDROUS], the “fractional inhibitory concentration index (FICI)” value (Mycobacterium leprae [32]) was 0.5, the Activity (Mycobacterium leprae [33]) was 0% and the Activity (Mycobacterium leprae [34]) was 89%. For the same molecule, the “fractional inhibitory concentration index (FICI)” value (Mycobacterium leprae [35]) was 1, the Activity (Mycobacterium leprae [36]) was 0% and the Activity (Mycobacterium leprae [37]) was 138%. It also gave an Activity (Mycobacterium leprae [38]) of 141%, an Activity (Mycobacterium leprae [39]) of 124% and an Activity (Mycobacterium leprae [40]) of 0%. For the same molecule, the “fractional inhibitory concentration index (FICI)” value (Mycobacterium leprae [41]) was 0.375.
